Reference: patent US20060178307A1, “Modulation of NMDA receptor currents via orexin receptor and/or CRF receptor” (priority 2005, published 2006)
“Also recorded” adds a separate entry of the source. Where no end group is shown, it is not given here.

Assays:
[1] = tested on: NMDAR-mediated EPSCs in VTA dopamine neurons; experiment: Evoked NMDAR-mediated EPSCs, whole-cell voltage clamp at +40 mV, VTA neurons in midbrain slices; type: cell-based, rat; conditions: for effect on orexin A-mediated potentiation of NMDAR EPSCs: antagonist 1 μM, n=8 (FIG. 1C)
Protocol: (§1) Excitatory postsynaptic currents (EPSCs) were recorded from VTA neurons in rat midbrain slices. EPSCs were evoked while holding neurons in voltage clamp at +40 mV. Measurements were taken 20 ms after the stimulus artifact, a time point at which the glutamatergic EPSC is mediated purely by NMDARs.
The patch pipette was loaded with the PLC inhibitor, U-73122 (1 μM, FIG. 2A, C, n=6) or the PKC inhibitor, chelerythrin (1 μM, FIG. 1A, B, n=6). […] Next, the protein kinase A inhibitor, PKI (20 μM, FIG. 2A, F, n=8) or Rp-cAMPs, a blocker of cAMP (100 μM, FIG. 2A, E, n=5) was added to the patch pipette.
Activation of PKC is implicated in NMDAR-dependent long-term potentiation (Malinow et al., 1989) and it modulates NMDAR trafficking to the membrane (Lan et al., 2001; Scott et al., 2001; Fong et al., 2002). NMDARs can translocate from intracellular or extrasynaptic pools to synaptic sites (Lan et al., 2001; Tovar and Westbrook, 2002). […] In a separate group of slices, orexin A (100 nM, n=6) was applied for 5 min during the washout period.
(§2) All of the electrophysiological recordings were performed in rats ranging from P21 to P30. Briefly, rats were anesthetized with halothane and sacrificed. Horizontal sections of the VTA ([…]) were prepared with a vibratome (Leica, Nussloch, Germany). Slices were placed in a holding chamber and allowed to recover for at least 1 hour before being placed in the recording chamber and superfused with bicarbonate-buffered solution (ACSF) saturated with 95% O2/5% CO2 and containing (in mM): 119 NaCl, 1.6 KCl, 1.0 NaH2PO4, 1.3 MgCl2, 2.5 CaCl2, 26.2 NaHCO3 and 11 glucose (at 32-34° C.). Picrotoxin (100 μM) was added to block GABAA receptor-mediated inhibitory postsynaptic currents. Cells were visualized using infrared differential interference contrast video microscopy. Whole-cell voltage clamp recordings were made using an Axopatch 1D amplifier (Axon Instruments, Union City, Calif.). Electrodes (2.8-4.0 MΩ) contained (in mM): 120 Cesium Methansulfonate, 20 HEPES, 0.4 EGTA, 2.8 NaCl, 5 TEA-Cl, 2.5 MgATP, and 0.25 NaGTP, pH 7.2-7.3 (270-285 mOsm). Series resistance (10-40 MΩ) and input resistance were monitored on-line with a 4-mV depolarizing step (50 ms) given just after every afferent stimulus. Dopaminergic VTA neurons were identified by the presence of a large Ih current (Lacey et al., 1990; Johnson and North, 1992) and, in some cases, tyrosine hydroxylase labeling. A bipolar stimulating electrode was placed 100-300 μm rostral to the recording electrode and was used to stimulate excitatory afferents at 0.1 Hz. Neurons were voltage-clamped at −70 mV and +40 mV to record AMPAR- and NMDAR-mediated EPSCs.

[2] = tested on: AMPAR/NMDAR ratio of EPSCs in VTA dopamine cells; experiment: AMPAR/NMDAR ratio in VTA slices 24 hr after 5-day in vivo treatment; design: species or system rat; conditions: 5 days
Protocol: The next study investigated whether orexin signaling in the VTA is required for the long-term plasticity associated with the development of behavioral sensitization. Long-term synaptic plasticity at excitatory synapses on VTA neurons was examined 24 hr after a 5-day treatment of cocaine (15 mg/kg) or saline (0.9%), a time course shown to induce long-lasting locomotor sensitization to cocaine (Thomas et al., 2001), with or without the OXR1 antagonist, SB 334867 (10 mg/kg, FIG. 5). To assay for synaptic plasticity, the relative contributions of AMPARs and NMDARs to EPSCs recorded in VTA dopamine cells were compared. Consistent with the potentiation observed following acute and 7-day cocaine treatments (Borgland et al., 2004), 5-day treatment with cocaine potentiated the AMPAR/NMDAR ratio compared to saline controls (FIG. 5A, saline: 0.4±0.07, n=4; cocaine: 0.8±0.1, n=4, p<0.05). This potentiation of synaptic plasticity was blocked by 5-day treatment with the OXR1 antagonist, SB 334867, administered 15 min prior to cocaine or saline (FIG. 5A, saline+SB334867: 0.4±0.02, n=5 vs. cocaine+SB334867: 0.5±0.08, n=11, p>0.05). Since OXR1 antagonists block cocaine-mediated potentiation of the AMPAR/NMDAR ratio, orexin A may either facilitate cocaine-mediated synaptic plasticity or enhance synaptic transmission itself. A 5-min orexin A application was performed to determine whether this caused changes in AMPAR/NMDAR ratio either 15 min or 3-4 hours after application (FIG. 5B).
To calculate the AMPAR/NMDAR ratio, an average of 12 EPSCs at +40 mV was computed before and after application of the NMDAR blocker, AP5 (50 μM) for 5 min. NMDAR responses were calculated by subtracting the average response in the presence of AP5 (AMPAR only) from that seen in its absence; the peak of the AMPAR EPSC was divided by the peak of the NMDAR EPSC to yield an AMPAR/NMDAR ratio.
Male Sprague-Dawley Rats (P21-P30; Charles River, N.C.) were singly housed with food and water available ad libitum. A 12 hr light/dark cycle was used, with the lights on at 7:00 A.M. All cocaine injections and behavioral testing were performed during the light cycle for consecutive days. The four treatment groups consisted of rats given 5 daily i.p. injections of SB 334867 (10 mg/kg) 15 min preceding i.p. injection of cocaine (15 mg/kg) or saline (0.9% NaCl), or i.p. injections of vehicle (10% DMSO and 25% β-hydroxy cyclodextrin in saline) 15 min preceding i.p. injection of cocaine or saline. […] Locomotor activity was measured in 17″×17″ chambers lined with three 16-beam I/R arrays. […] Distance traveled was measured using Open Field Activity Software (Med Associates, Inc) and analyzed for estimates of locomotion based on the movement of a given distance and resting delay (movement in a given period of time).

[3] = tested on: AMPAR-mediated EPSCs in VTA dopamine neurons; experiment: Evoked AMPAR-mediated EPSCs recorded at −70 mV, VTA slices; type: cell-based, rat; conditions: orexin A 100 nM
Protocol: as §1
as §2, with “Electrodes (2.8-4.0 MΩ) contained (in mM): 120 Cesium Methansulfonate, 20 HEPES, 0.4 EGTA, 2.8 NaCl, 5 TEA-Cl, 2.5 MgATP, and 0.25 NaGTP, pH 7.2-7.3 (270-285 mOsm).” left out, “Dopaminergic VTA neurons were identified by the presence of a large Ih current (Lacey et al., 1990; Johnson and North, 1992) and, in some cases, tyrosine hydroxylase labeling. A bipolar stimulating electrode was placed 100-300 μm rostral to the recording electrode and was used to stimulate excitatory afferents at 0.1 Hz. Neurons were voltage-clamped at −70 mV and +40 mV to record AMPAR- and NMDAR-mediated EPSCs.” left out

[4] = orexin A 100 nM in the presence of ifenprodil 3 μM, n=6

Cc1nc2ccc(NC(=O)Nc3ccnc4cccnc34)cc2o1.Cl [SB 334867, 1-(2-methylbenzoxazol-6-yl)-3-[1,5]naphthyridin-4-yl urea hydrochloride] was tested, and the “effect on orexin A-mediated potentiation of NMDAR EPSCs” value ([1]; hydrochloride) was “significantly inhibited”, the “effect on orexin A-mediated potentiation of NMDAR EPSCs” value ([1]; listed as SB 334857, hydrochloride) was “blocked” and the “effect on cocaine-induced potentiation of AMPAR/NMDAR ratio” value ([2]; 10 mg/kg i.p. 15 min prior to cocaine) was “blocked”. It also gave an AMPAR/NMDAR ratio ([2]; cocaine 15 mg/kg + SB334867 10 mg/kg 15 min prior, n=11) of 0.5±0.08 and an AMPAR/NMDAR ratio ([2]; saline + SB334867 10 mg/kg 15 min prior, n=5) of 0.4±0.02.
In the case of “orexin A: neuropeptide synthesized in neurons of the LH; orexin receptor agonist selective for the OXR1 receptor (QPLPDCCRQKTCSCRLYELLHGAGNHAAGILTL; ends and bridges not checked; cysteine pairing not given here; UniProt O43612 34-66, looked up)”, the “response of neurons that did not express TH” value ([1]; 2 TH-negative neurons) is reported as “neither responded”, the “NMDAR eEPSCs potentiated to a maximum of” value ([1]; 5 min co-application of orexin A 1 nM with CRF 10 nM, n=7) is reported as 123±12% and the “NMDAR EPSC before orexin A” value ([1]; NR2A/C (NVP-AAM077 0.4 μM) and NR2B (ifenprodil 3 μM) inhibitors co-applied, n=6) is reported as 32±5%. For the same compound, the “TH-containing neurons with potentiated NMDAR responses” value ([1]; biocytin-filled, tyrosine hydroxylase positive neurons) was 7/8, the “potentiation of NMDAR-mediated EPSCs” value ([1]; orexin A 1 nM (FIG. 1B), n=6) was 5±1% and the “potentiation of NMDARs” value ([1]; orexin A 1 nM (FIG. 14A), n=6) was 5.7±1.6%. For the same compound, the “potentiation of NMDAR-mediated EPSCs” value ([1]; orexin A 10 nM (FIG. 1B), n=6) was 18±3%, the “maximum current after MK-801 washout” value ([1]; orexin A 100 nM 5 min during washout of MK-801 10 μM, n=6) was 40±17% and the “potentiation of NMDAR-mediated EPSCs” value ([1]; orexin A 100 nM (FIG. 1B), n=6) was 42±5%. For the same compound, the “orexin A potentiation of NMDAR EPSCs” value ([1]; orexin A 100 nM after NVP-AAM077 0.4 μM and ifenprodil 3 μM co-application) was “largely inhibited; also recorded: blocked”, the “duration of potentiation after washout” value ([1]; orexin A 100 nM applied for 30 min) was > 40 min and the “potentiation of NMDAR EPSCs” value ([1]; orexin A 100 nM applied for 30 min, n=6) was 74±16%. For the same compound, the “potentiation of NMDAR-mediated EPSCs” value ([1]; orexin A 100 nM bath application 5 min (FIG. 1A), n=12) was 49±9%, the “maximum potentiation of NMDAR EPSCs” value ([1]; orexin A 100 nM in the presence of NVP-AAM077 0.4 μM, n=7) was 20±6% and the “effect on remaining current” value ([1]; orexin A 100 nM in the presence of NVP-AAM077, ifenprodil and PPDA) was “did not alter”. For the same compound, the “maximum amplitude, of baseline EPSCs” value [1, 4] was 107±16%, the “potentiation of NMDAR-mediated EPSCs” value [1, 4] was 36% and the “NMDAR EPSC after orexin A” value ([1]; orexin A 100 nM with NVP-AAM077 0.4 μM and ifenprodil 3 μM co-applied, n=6) was 45±12%. For the same compound, the “neurons with potentiation greater than 10% / neurons recorded” value ([1]; orexin A 100 nM, 5 min) was 10/12, the “maximum current after MK-801 and NMDA washout” value ([1]; orexin A 5 min during washout of MK-801 20 μM + NMDA 500 μM, n=6) was 20±2% and the “maximum potentiation of NMDARs” value ([1]; orexin A in the presence of Zn2+ (300 nM), n=5) was 14±4%. The “change of AMPAR-mediated EPSCs” value ([3]; n=8) was “not changed” and the “change of AMPAR-mediated EPSCs” value ([3]; n=8, listed as Orexin A) was “does not increase”.
